Measurements reported in article PMC11088696, “An integrated multi-omics approach reveals polymethoxylated flavonoid biosynthesis in Citrus reticulata cv. Chachiensis” (Nature Communications, 2024).

Columns and labels:
CcOMT1 [1] = test system: T1, CcOMT1; test: HPLC of methylated product, Michaelis-Menten non-linear fit; format: biochemical, Citrus reticulata; details: 5 mM SAM, pH 6.0 phosphate, 50 °C, 2 h, 1 mM DTT
T1 construct: full-length cDNA from CRC leaf cDNA library, BamHI/XhoI in pET-28a(+), E. coli BL21(DE3), Ni-NTA purified; ORF printed 1080 bp but 366 aa printed (inconsistent); primers encode N-terminus MGSTSSE, C-terminus MEFLKSA
Text: HPLC of methylated product, Michaelis-Menten non-linear fit on CcOMT1 | For kinetic studies of CcOMT1 and its variant CcOMT1-W141Y toward natsudaidain

CcOMT1 [2] = test system: T1, CcOMT1; test: as above; format: biochemical, Citrus reticulata; details: 5 mM SAM, pH 6.0 phosphate, 50 °C, 2 h, 1 mM DTT; remark: listed apart in the source
Procedure: HPLC of methylated product, Michaelis-Menten non-linear fit on CcOMT1 | To determine the kinetic parameters of CcOMT1, the Michaelis–Menten constant (Km) was determined

Work on `COc1ccc(-c2oc3c(OC)c(OC)c(OC)c(OC)c3c(=O)c2O)cc1OC` [compound 1, natsudaidain] yielded a Km (CcOMT1 [1]) of 20.8 ± 7.6 µM and a Km (CcOMT1 [2]) of 25.4 ± 11.3 µM.
